Test results published in ChEMBL document CHEMBL1201862, “PubChem BioAssay data set” (2004).
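Step 1: Grow cells in 96-well plates. Step 2: Expose to compound for 48 hours at 5 concentrations. Step 3: Interpolate endpoints linearly; if unreached, use highest concentration. GI50: concentration for 50% inhibition of growth.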 Active and inactive are the calls of the source. Cut-off read from the data, not from the text of the source: active = GI50 up to about 1.1 µM and inactive = higher.

Key:
Assay in all cases: NCI tumour cell line growth inhibition, 48 h
[1] = system: 786-0
[2] = system: A498
[3] = system: KM12
[4] = system: LXFL 529
[5] = system: M14
[6] = system: MCF7
[7] = system: Malme-3M
[8] = system: NCI-H226
[9] = system: NCI-H23
[10] = system: OVCAR-4
[11] = system: SF-539
[12] = system: SK-OV-3
[13] = system: SNB-19
[14] = system: T47D
[15] = system: TK-10
[16] = system: UACC-62
[17] = system: UO-31
[18] = system: HCT-116
[19] = system: K562
[20] = system: RPMI-8226

Row | SMILES | GI50 [1] | GI50 [2] | GI50 [3] | GI50 [4] | GI50 [5] | GI50 [6] | GI50 [7] | GI50 [8] | GI50 [9] | GI50 [10] | GI50 [11] | GI50 [12] | GI50 [13] | GI50 [14] | GI50 [15] | GI50 [16] | GI50 [17] | GI50 [18] | GI50 [19] | GI50 [20]
1 | COc1cc(Cc2nccc3cc(OC)c(OC)cc23)c(C(C)=O)cc1OC | 65.2 µM (inactive) | > 300 µM (inactive) | 160 µM (inactive) | 25.5 µM (inactive) | 187 µM (inactive) | 144 µM (inactive) | 19.7 µM (inactive) | 10.8 µM (inactive) | 124 µM (inactive) | 6.71 µM (inactive) | > 94.8 µM (inactive) | 128 µM (inactive) | 300 µM (inactive) | 2.2 µM (inactive) | 139 µM (inactive) | 53 µM (inactive) | > 139 µM (inactive) |  |  | 
2 | CCC1(O)C(=O)OCc2c1cc1n(c2=O)Cc2cc3cc4c(cc3nc2-1)OCO4 (stereo not drawn) | < 0.01 µM (active) | < 0.0103 µM (active) |  | 0.0617 µM (active) | < 0.01 µM (active) | < 0.01 µM (active) | 0.0164 µM (active) | < 0.01 µM (active) | < 0.01 µM (active) | 0.0551 µM (active) | 0.0316 µM (active) | 0.0102 µM (active) | < 0.01 µM (active) | < 0.01 µM (active) | 0.31 µM (active) | < 0.01 µM (active) | < 0.0111 µM (active) | < 0.01 µM (active) | 0.0142 µM (active) | 0.0236 µM (active)
3 | CC(=O)O[C@]1(C)CCC2C(C)C(=O)OC2C2C(C)[C@@H](O)CC21 (stereo partly drawn) | 31.4 µM (inactive) | 19.8 µM (inactive) | 49.8 µM (inactive) | 21.7 µM (inactive) | 20.8 µM (inactive) |  | > 100 µM (inactive) | 31.4 µM (inactive) | 36.6 µM (inactive) | 26.2 µM (inactive) | 39.5 µM (inactive) | 49.9 µM (inactive) | 28.3 µM (inactive) |  | 42.6 µM (inactive) | 33.9 µM (inactive) | 48.9 µM (inactive) | 27.2 µM (inactive) | 17.1 µM (inactive) | 20.5 µM (inactive)
4 | O=C(OCCOCBr)c1ccccc1 | > 100 µM (inactive) | > 100 µM (inactive) | > 100 µM (inactive) | > 100 µM (inactive) | > 100 µM (inactive) |  | > 100 µM (inactive) | > 100 µM (inactive) | > 100 µM (inactive) | > 100 µM (inactive) | > 100 µM (inactive) | > 100 µM (inactive) | > 100 µM (inactive) |  | > 100 µM (inactive) | > 100 µM (inactive) | > 100 µM (inactive) | > 100 µM (inactive) | > 100 µM (inactive) | > 100 µM (inactive)
5 | CCCCCCCCC(=O)NCCN(CCN)C(=O)CCCCCCCC | 4.9 µM (inactive) | 21.9 µM (inactive) | 2.48 µM (inactive) | 3.36 µM (inactive) | 8.81 µM (inactive) | 4.75 µM (inactive) | 17.9 µM (inactive) | 18.5 µM (inactive) | 17.3 µM (inactive) | 8.17 µM (inactive) | 5.7 µM (inactive) | 15.5 µM (inactive) | 8.55 µM (inactive) | 14.9 µM (inactive) | 14.6 µM (inactive) | 10.7 µM (inactive) | 12.7 µM (inactive) | 3.74 µM (inactive) | 2.18 µM (inactive) | 2.49 µM (inactive)
6 | O=C(O)CCC1(Br)CCCCC(Br)C1=O (stereo not drawn) | > 100 µM (inactive) | > 100 µM (inactive) | > 10 µM (inactive) | > 100 µM (inactive) | > 100 µM (inactive) |  | > 100 µM (inactive) | > 100 µM (inactive) | > 100 µM (inactive) | > 100 µM (inactive) | > 100 µM (inactive) | > 100 µM (inactive) | > 100 µM (inactive) |  | > 100 µM (inactive) | > 100 µM (inactive) | > 10 µM (inactive) | > 100 µM (inactive) | > 100 µM (inactive) | > 100 µM (inactive)
7 | Clc1ccc2c(NCCCCCCNc3ccnc4cc(Cl)ccc34)ccnc2c1 | 1.97 µM (inactive) | 11.2 µM (inactive) | 2.66 µM (inactive) | 2.33 µM (inactive) | 1.88 µM (inactive) | 2.51 µM (inactive) | 12.8 µM (inactive) | 10.4 µM (inactive) | 12.3 µM (inactive) | 2.54 µM (inactive) | 1.87 µM (inactive) | 5.22 µM (inactive) | 3.8 µM (inactive) | 2.08 µM (inactive) | 6.78 µM (inactive) | 3.86 µM (inactive) | 4.83 µM (inactive) | 1.8 µM (inactive) | 1.72 µM (inactive) | 2.13 µM (inactive)
8 | COc1cc(/C=C2\CCC/C(=C\c3ccc(O)c(OC)c3)C2=O)ccc1O [CYCLOVALONE] | 2.07 µM (inactive) | 3.99 µM (inactive) | 2.87 µM (inactive) | 1.85 µM (inactive) | 2.25 µM (inactive) | 4.33 µM (inactive) | 2.17 µM (inactive) | 6.17 µM (inactive) | 6.75 µM (inactive) | 7.35 µM (inactive) | 2.04 µM (inactive) | 3.73 µM (inactive) | 6.15 µM (inactive) | 3.29 µM (inactive) | 5 µM (inactive) | 1.96 µM (inactive) | 2.13 µM (inactive) | 2.07 µM (inactive) | 3.22 µM (inactive) | 1.2 µM (inactive)
9 | c1nc2cscc2c2cscc12 | > 100 µM (inactive) | > 100 µM (inactive) | > 100 µM (inactive) | > 100 µM (inactive) | > 100 µM (inactive) |  | > 100 µM (inactive) | 29.2 µM (inactive) | > 100 µM (inactive) | > 100 µM (inactive) | > 100 µM (inactive) | 37 µM (inactive) | > 100 µM (inactive) |  | > 100 µM (inactive) | > 100 µM (inactive) | > 100 µM (inactive) | > 100 µM (inactive) | > 100 µM (inactive) | > 100 µM (inactive)
